Values after ≈ are worked out from the molar mass of the structure shown.
Columns and labels:
[1] = Cytotoxicity against African green monkey Vero cells assessed as decrease in cell viability after 72 hrs by MTT assay; type: cell-based; details: chlorocebus sabaeus
[2] = Selectivity index, ratio of CC50 for cytotoxicity against African green monkey Vero cells to MIC for antimycobacterial activity against drug-susceptible Mycobacterium tuberculosis H37Rv; type: toxicity, cell-based; details: read-out: Selectivity Index
[3] = test system: Mycobacterium tuberculosis; test: Antimycobacterial activity against drug-susceptible Mycobacterium tuberculosis H37Rv assessed as complete inhibition of bacterial growth incubated for 7 days by rapid direct susceptibility test; type: functional; details: 168 h
[4] = Elimination half life in ICR mouse at 25 mg/kg, po administered as single dose and measured up to 24 hrs post dose; type: ADME, organism-based; details: in vivo, read-out: beta t1/2 (converted)
[5] = Cmax in ICR mouse at 25 mg/kg, po administered as single dose and measured up to 24 hrs post dose; type: ADME, organism-based; set-up: dose 25 mg/kg, route oral; details: in vivo
[6] = Tmax in ICR mouse at 25 mg/kg, po administered as single dose and measured up to 24 hrs post dose; type: ADME, organism-based; details: in vivo
[7] = Metabolic stability in mouse liver microsomes assessed as half life; type: ADME, Microsome
[8] = AUC (0 to infinity) in ICR mouse at 25 mg/kg, po administered as single dose and measured up to 24 hrs post dose; type: ADME, organism-based; set-up: dose 25 mg/kg, time infinity, route oral; details: in vivo

Work on `CCOC(=O)c1c(-c2ccc(F)cc2)oc2ccc(OCCCCCCN3C(=O)C(=O)c4cc(F)ccc43)cc12` yielded a CC50 at 72 h [1] of 512 µM, a selectivity ratio [2] of 2048 and an MIC [3] of 0.25 µg/mL (≈ 0.457 µM).
For `CNC(=O)c1c(-c2ccc(O)cc2)oc2ccc(O)c(CN3CCCCC3)c12`, the half-life [4] was 8.59 h, the CC50 at 72 h [1] was greater than 1020 µM and the selectivity ratio [2] was greater than 16400. It also gave a Cmax [5] of 6830 ng/mL, a Tmax [6] of 3.12 h and a half-life [7] greater than 1 h. It also gave an MIC [3] of less than 0.06 µg/mL and an AUC(0-inf) [8] of 31800 ng·h/mL.
`CCOC(=O)c1c(-c2ccc(OC)cc2)oc2ccc(OCCCCCN3C(=O)C(=O)c4cc(F)ccc43)cc12` showed a CC50 at 72 h [1] of 128 µM, a selectivity ratio [2] of 512 and an MIC [3] of 0.25 µg/mL (≈ 0.458 µM).
`CCOC(=O)c1c(-c2ccc(F)cc2)oc2ccc(OCCCCCN3C(=O)C(=O)c4cc(OC)ccc43)cc12` showed a CC50 at 72 h [1] of 128 µM, a selectivity ratio [2] of 256 and an MIC [3] of 0.5 µg/mL (≈ 0.916 µM).
In the case of `CCOC(=O)c1c(-c2ccccc2)oc2ccc(OCCCN3C(=O)C(=O)c4cc(OC)ccc43)cc12`, the CC50 at 72 h [1] was 256 µM, the selectivity ratio [2] was 1024 and the MIC [3] was 0.25 µg/mL (≈ 0.5 µM).
For `CCOC(=O)c1c(-c2ccc(OC)cc2)oc2ccc(OCCCN3C(=O)C(=O)c4cc(F)ccc43)cc12`, the CC50 at 72 h [1] was 256 µM, the selectivity ratio [2] was 512 and the MIC [3] was 0.5 µg/mL (≈ 0.966 µM).
`CCOC(=O)c1c(-c2ccc(OC)cc2)oc2ccc(OCCCN3C(=O)C(=O)c4ccccc43)cc12` gave a CC50 at 72 h [1] of 64 µM, a selectivity ratio [2] of 64 and an MIC [3] of 1 µg/mL (≈ 2 µM).
`CCOC(=O)c1c(-c2ccc(F)cc2)oc2ccc(OCCCN3C(=O)C(=O)c4ccccc43)cc12` gave a CC50 at 72 h [1] of 256 µM, a selectivity ratio [2] of 128 and an MIC [3] of 2 µg/mL (≈ 4.1 µM).
Compound `CCOC(=O)c1c(-c2ccc(OC)cc2)oc2ccc(OCCCCN3C(=O)C(=O)c4cc(OC)ccc43)cc12` has a CC50 at 72 h [1] of 64 µM, a selectivity ratio [2] of 32 and an MIC [3] of 2 µg/mL (≈ 3.68 µM).
Compound `CCOC(=O)c1c(-c2ccc(OC)cc2)oc2ccc(OCCCCCCN3C(=O)C(=O)c4ccccc43)cc12` has a CC50 at 72 h [1] of 256 µM, a selectivity ratio [2] of 1024 and an MIC [3] of 0.25 µg/mL (≈ 0.462 µM).
With `CCOC(=O)c1c(-c2ccc(OC)cc2)oc2ccc(OCCCCCCN3C(=O)C(=O)c4cc(F)ccc43)cc12` the half-life [4] was 2.48 h, the CC50 at 72 h [1] was 128 µM and the selectivity ratio [2] was 1024. It also gave a Cmax [5] of 1220 ng/mL, a Tmax [6] of 1.76 h and a half-life [7] of 0.527 h. For the same compound, the MIC [3] was 0.125 µg/mL (≈ 0.223 µM) and the AUC(0-inf) [8] was 3680 ng·h/mL.
Work on `CCOC(=O)c1c(-c2ccc(OC)cc2)oc2ccc(OCCCCN3C(=O)C(=O)c4ccccc43)cc12` yielded a CC50 at 72 h [1] greater than 1020 µM, a selectivity ratio [2] greater than 2048 and an MIC [3] of 0.5 µg/mL (≈ 0.974 µM).
Work on `CCOC(=O)c1c(-c2ccc(F)cc2)oc2ccc(OCCCN3C(=O)C(=O)c4cc(F)ccc43)cc12` yielded a CC50 at 72 h [1] of 512 µM, a selectivity ratio [2] of 512 and an MIC [3] of 1 µg/mL (≈ 1.98 µM).
Work on `CCOC(=O)c1c(-c2ccc(F)cc2)oc2ccc(OCCCN3C(=O)C(=O)c4cc(OC)ccc43)cc12` yielded a CC50 at 72 h [1] of 128 µM, a selectivity ratio [2] of 128 and an MIC [3] of 1 µg/mL (≈ 1.93 µM).
With `NNC(=O)c1ccncc1` [ISONIAZID] the MIC [3] was 0.06 µg/mL (≈ 0.438 µM).
In the case of `CO[C@H]1/C=C/O[C@@]2(C)Oc3c(C)c(O)c4c(O)c(c(/C=N/N5CCN(C)CC5)c(O)c4c3C2=O)NC(=O)/C(C)=C\C=C\[C@H](C)[C@H](O)[C@@H](C)[C@@H](O)[C@@H](C)[C@H](OC(C)=O)[C@@H]1C` [RIFAMPIN], the MIC [3] was 0.5 µg/mL (≈ 0.608 µM).
